Here are results for three compounds from publication PMC11822212, “High-throughput screening identifies Aurora kinase B as a critical therapeutic target for Merkel cell carcinoma” (Nature Communications, 2025).

One assay relates to CRL-7250 cells. As to the kind of experiment: qHTS cell viability (CellTiter-Glo, 72 h; primary screen), control cell line. Format: cell-based.
Assay [1] concerns six MCC cell lines and four control cell lines. As to the kind of experiment: qHTS cell viability, all 10 cell lines screened. Format: cell-based.
The test system of the next assay is WAGA cells (VP-MCC). As to the kind of experiment: qHTS cell viability (CellTiter-Glo, 72 h; primary and follow-up small molecule screen). Format: cell-based, human. A general note: Quantitative high-throughput screening tests each substance at several concentrations.
Assay [2] has as its system control cell lines (HACAT, HEK293T, CRL-7250, NIH-3T3). As to the kind of experiment: qHTS cell viability, control cell lines as a group (mean AUC, Control.avg). Format: cell-based.
A further assay deals with MCC26 cells (VN-MCC). Kind of assay: qHTS cell viability (CellTiter-Glo, 72 h; primary and follow-up small molecule screen). It counts as cell-based, human.
A further assay deals with MKL-2 cells (VP-MCC). The description is as above. Format: cell-based, human.
For a further assay, the system named is NIH-3T3 cells. As to the kind of experiment: qHTS cell viability (CellTiter-Glo, 72 h; primary screen), control cell line. It counts as cell-based, mouse.
The subject of another assay is MKL-1 cells (VP-MCC). As to the kind of experiment: qHTS cell viability (CellTiter-Glo, 72 h; primary and follow-up small molecule screen). Format: cell-based, human.
In a further assay the test system is UISO cells (VN-MCC). The assay is described as above. Format: cell-based, human.
The subject of another assay is HEK293T cells. Kind of assay: qHTS cell viability (CellTiter-Glo, 72 h; primary screen), control cell line. Format: cell-based, human.
The test system of assay [3] is VN-MCC cell lines (MCC13, MCC26, UISO). Kind of assay: qHTS cell viability, VN-MCC cell lines as a group (mean AUC, VN.MCC.avg). Format: cell-based, human.
Assay [4] concerns MCC cell lines (WAGA, MKL-1, MKL-2, MCC13, MCC26, UISO). As to the kind of experiment: qHTS cell viability, all six MCC cell lines as a group (mean AUC, MCC.avg). Format: cell-based, human.
For a further assay, the system named is HACAT cells. Kind of assay: qHTS cell viability (CellTiter-Glo, 72 h; primary screen), control cell line. Format: cell-based, human.
The subject of assay [5] is VP-MCC cell lines (WAGA, MKL-1, MKL-2). As to the kind of experiment: qHTS cell viability, VP-MCC cell lines as a group (mean AUC, VP.MCC.avg). Format: cell-based, human.
Another assay relates to MCC13 cells (VN-MCC). As to the kind of experiment: qHTS cell viability (CellTiter-Glo, 72 h; primary and follow-up small molecule screen). Format: cell-based, human.
Setting [6] is: NPC library, qHTS dose-response AUC, CRL7250 control.
Where [7] appears, read: NPC library, therapeutic window: Control avg AUC minus MCC avg AUC.
The mark [8] stands for this setting: NPC library, qHTS dose-response AUC, WAGA.
Setting [9] is: NPC library, mean AUC of control cell lines.
Where [10] appears, read: NPC library, qHTS dose-response AUC, MCC26.
The mark [11] stands for this setting: NPC library, qHTS dose-response AUC, MKL2.
The mark [12] stands for this setting: NPC library, qHTS dose-response AUC, NIH3T3 control.
The mark [13] stands for this setting: NPC library, qHTS dose-response AUC, MKL1.
Setting [14] is: NPC library, qHTS dose-response AUC, UISO.
The mark [15] stands for this setting: NPC library, qHTS dose-response AUC, HEK293T control.
The mark [16] stands for this setting: NPC library, mean AUC of VN-MCC cell lines.
[17] abbreviates: NPC library, therapeutic window: Control avg AUC minus VN-MCC avg AUC.
The mark [18] stands for this setting: NPC library, mean AUC of six MCC cell lines.
The mark [19] stands for this setting: NPC library, qHTS dose-response AUC, HACAT control.
Setting [20] is: NPC library, mean AUC of VP-MCC cell lines.
The mark [21] stands for this setting: NPC library, therapeutic window: Control avg AUC minus VP-MCC avg AUC.
Where [22] appears, read: NPC library, qHTS dose-response AUC, MCC13.

Where “and” joins values, the source holds several entries; their conditions need not be identical. Equal entries are not always repeated. Structures can show the parent of a compound that is named as a salt. Where two headings read alike, the source gives them in different places.

In the assay on CRL-7250 cells (setting [6]), `CCCCCCCCCCCCCCCC[N+](C)(C)CC` [Ethylhexadecyldimethylammonium bromide] displayed a CRL7250_AUC of 362.003. Moreover, in assay [1] (setting [7]), the Control-MCC is on record as 16.8967. The compound also yielded a WAGA_AUC in the assay on WAGA cells (VP-MCC) (setting [8]) of 248.495. Moreover, the “Area under the dose-response curve (AUC) WAGA Replicate 1” value in the assay with WAGA cells (VP-MCC) (follow-up screen, WAGA, replicate 1) was 383.4. Moreover, the “Area under the dose-response curve (AUC) WAGA Replicate 2” value in the assay on WAGA cells (VP-MCC) (follow-up screen, WAGA, replicate 2) was determined as 363.0. Moreover, the “Area under the dose-response curve (AUC) WAGA Replicate 3” value with WAGA cells (VP-MCC) (follow-up screen, WAGA, replicate 3) was determined as 382.5. In assay [2] (setting [9]), the Control_Avg_AUC turned out to be 359.474. In the assay with MCC26 cells (VN-MCC) (setting [10]), this compound came in with an MCC26_AUC of 497.964. In addition, the “Area under the dose-response curve (AUC) MCC26 Replicate 1” value with MCC26 cells (VN-MCC) (follow-up screen, MCC26, replicate 1) was determined as 420.1. In addition, the “Area under the dose-response curve (AUC) MCC26 Replicate 2” value in the assay on MCC26 cells (VN-MCC) (follow-up screen, MCC26, replicate 2) amounted to 377.6. For the same compound, the “Area under the dose-response curve (AUC) MCC26 Replicate 3” value in the assay on MCC26 cells (VN-MCC) (follow-up screen, MCC26, replicate 3) is 430.8. Also, the MKL2_AUC in the assay with MKL-2 cells (VP-MCC) (setting [11]) is given as 235.245. Also, in the assay with MKL-2 cells (VP-MCC) (follow-up screen, MKL-2, replicate 1), the “Area under the dose-response curve (AUC) MKL-2 Replicate 1” value was 333.8. The “Area under the dose-response curve (AUC) MKL-2 Replicate 2” value in the assay on MKL-2 cells (VP-MCC) (follow-up screen, MKL-2, replicate 2) amounted to 320.4. In addition, the “Area under the dose-response curve (AUC) MKL-2 Replicate 3” value in the assay with MKL-2 cells (VP-MCC) (follow-up screen, MKL-2, replicate 3) is reported as 334.2. Moreover, the NIH3T3_AUC with NIH-3T3 cells (setting [12]) came to 447.34. This compound also registered an MKL1_AUC with MKL-1 cells (VP-MCC) (setting [13]) of 275.727. Moreover, the “Area under the dose-response curve (AUC) MKL-1 Replicate 1” value in the assay with MKL-1 cells (VP-MCC) (follow-up screen, MKL-1, replicate 1) was found to be 317.9. In the assay with MKL-1 cells (VP-MCC) (follow-up screen, MKL-1, replicate 2), the “Area under the dose-response curve (AUC) MKL-1 Replicate 2” value turned out to be 305.9. Further, the “Area under the dose-response curve (AUC) MKL-1 Replicate 3” value with MKL-1 cells (VP-MCC) (follow-up screen, MKL-1, replicate 3) is listed as 330.7. Further, in the assay on UISO cells (VN-MCC) (setting [14]), the UISO_AUC was 345.634. The “Area under the dose-response curve (AUC) UISO Replicate 1” value in the assay with UISO cells (VN-MCC) (follow-up screen, UISO, replicate 1) stood at 324.1. The “Area under the dose-response curve (AUC) UISO Replicate 2” value in the assay on UISO cells (VN-MCC) (follow-up screen, UISO, replicate 2) amounted to 364.3. Besides, in the assay on UISO cells (VN-MCC) (follow-up screen, UISO, replicate 3), the “Area under the dose-response curve (AUC) UISO Replicate 3” value is 313.9. The same compound had an HEK293T_AUC with HEK293T cells (setting [15]) of 340.309. The compound further gave a VN-MCC_Avg_AUC in assay [3] (setting [16]) of 431.999. Further, the Control-VN-MCC in [3] (setting [17]) was -72.525. This compound also had an MCC_Avg_AUC in [4] (setting [18]) of 342.577. The HACAT_AUC in the assay with HACAT cells (setting [19]) worked out at 288.244. Moreover, the VP-MCC_Avg_AUC in [5] (setting [20]) came to 253.156. Further, the Control-VP-MCC in [5] (setting [21]) amounted to 106.318. The compound further displayed an MCC13_AUC in the assay on MCC13 cells (VN-MCC) (setting [22]) of 452.398. Also, the “Area under the dose-response curve (AUC) MCC13 Replicate 1” value in the assay on MCC13 cells (VN-MCC) (follow-up screen, MCC13, replicate 1) is given as 444.8. The “Area under the dose-response curve (AUC) MCC13 Replicate 2” value with MCC13 cells (VN-MCC) (follow-up screen, MCC13, replicate 2) is 473.1. In the assay on MCC13 cells (VN-MCC) (follow-up screen, MCC13, replicate 3), the “Area under the dose-response curve (AUC) MCC13 Replicate 3” value is 416.6.

Consider `Cn1c(=O)c2c(ncn2CCO)n(C)c1=O` [Etofylline], for which, in the assay with CRL-7250 cells (setting [6]), the CRL7250_AUC is on record as 458.019. The same compound showed a Control-MCC in assay [1] (setting [7]) of 54.9761. This compound came in with a WAGA_AUC with WAGA cells (VP-MCC) (setting [8]) of 399.645. The compound further yielded a Control_Avg_AUC in [2] (setting [9]) of 463.112. The same compound yielded an MCC26_AUC in the assay with MCC26 cells (VN-MCC) (setting [10]) of 435.802. In the assay on MKL-2 cells (VP-MCC) (setting [11]), this compound showed an MKL2_AUC of 336.333. In the assay on NIH-3T3 cells (setting [12]), this compound registered an NIH3T3_AUC of 458.11. Besides, the MKL1_AUC in the assay with MKL-1 cells (VP-MCC) (setting [13]) worked out at 387.045. In the assay on UISO cells (VN-MCC) (setting [14]), this compound registered a UISO_AUC of 431.565. The HEK293T_AUC in the assay with HEK293T cells (setting [15]) stood at 445.08. In assay [3] (setting [16]), the VN-MCC_Avg_AUC turned out to be 441.93. Moreover, in [3] (setting [17]), the Control-VN-MCC is listed as 21.1816. This compound showed an MCC_Avg_AUC in assay [4] (setting [18]) of 408.136. In addition, the HACAT_AUC in the assay on HACAT cells (setting [19]) was 491.237. This compound displayed a VP-MCC_Avg_AUC in assay [5] (setting [20]) of 374.341. In assay [5] (setting [21]), this compound returned a Control-VP-MCC of 88.7707. This compound returned an MCC13_AUC with MCC13 cells (VN-MCC) (setting [22]) of 458.423.

As for `CC(Cc1ccccc1)NCCn1cnc2c1c(=O)n(C)c(=O)n2C` (stereo not drawn) [Fenethylline hydrochloride], the CRL7250_AUC in the assay on CRL-7250 cells is 496.56. The compound also showed a Control-MCC in [1] of 57.3924. In the assay on WAGA cells (VP-MCC), this compound displayed a WAGA_AUC of 435.275. For the same compound, the Control_Avg_AUC in [2] worked out at 486.733. Further, in the assay with MCC26 cells (VN-MCC), the MCC26_AUC is reported as 413.898. In the assay on MKL-2 cells (VP-MCC), this compound registered an MKL2_AUC of 435.518. For the same compound, the NIH3T3_AUC in the assay with NIH-3T3 cells is 480.657. The MKL1_AUC in the assay on MKL-1 cells (VP-MCC) was determined as 406.458. This compound also displayed a UISO_AUC in the assay on UISO cells (VN-MCC) of 437.462. Also, in the assay on HEK293T cells, the HEK293T_AUC is on record as 471.885. Besides, in assay [3], the Control-VN-MCC is listed as 53.8023; the VN-MCC_Avg_AUC is 432.93 and 432.931. The MCC_Avg_AUC in assay [4] is reported as 429.34. Further, the HACAT_AUC in the assay on HACAT cells is on record as 497.83. In assay [5], this compound came in with a Control-VP-MCC of 60.9825 and a VP-MCC_Avg_AUC of 425.75. In the assay with MCC13 cells (VN-MCC), this compound had an MCC13_AUC of 447.432.
